According to patent publication US20070270408A1, “Pharmaceutical use of substituted pyrazolo[1,5-a]pyrimidines” (Novo Nordisk A/S, priority 2003, published 2007):

Biological target: T1, h-11βHSD1 (Homo sapiens, UniProt P28845)
T1 construct: made in house
Assay: 11βHSD1 enzyme assay (SPA)
Type: biochemical
Settings: yeast extract with h-11βHSD1, 120 nM 3H-cortisone, 4 mM β-NADPH, 60 min at 30° C.
Experimental: Pharmacological Methods 11βHSD1 Enzyme Assay Materials
^3H-cortisone and anti-rabbit Ig coated scintillation proximity assay (SPA) beads were purchased from Amersham Pharmacia Biotech, β-NADPH was from Sigma and rabbit anti-cortisol antibodies were from Fitzgerald. An extract of yeast transformed with h-11βHSD1 (Hult et al., FEBS Lett, 441, 25 (1998)) was used as the source of enzyme. The test compounds were dissolved in DMSO (10 mM). All dilutions were performed in a buffer containing 50 mM TRIS-HCl (Sigma Chemical Co), 4 mM EDTA (Sigma Chemical Co), 0.1% BSA (Sigma Chemical Co), 0.01% Tween-20 (Sigma Chemical Co) and 0.005% bacitracin (Novo Nordisk A/S), pH=7.4. Optiplate 96 wells plates were supplied by Packard. The amount of ^3H-cortisol bound to the SPA beads was measured on TopCount NXT, Packard.
h-11βHSD1, 120 nM ^3H-cortisone, 4 mM β-NADPH, antibody (1:200), serial dilutions of test compound and SPA particles (2 mg/well) were added to the wells. The reaction was initiated by mixing the different components and was allowed to proceed under shaking for 60 min at 30° C. […] Data was analysed using GraphPad Prism software.

T1 sequence (P28845 whole entry): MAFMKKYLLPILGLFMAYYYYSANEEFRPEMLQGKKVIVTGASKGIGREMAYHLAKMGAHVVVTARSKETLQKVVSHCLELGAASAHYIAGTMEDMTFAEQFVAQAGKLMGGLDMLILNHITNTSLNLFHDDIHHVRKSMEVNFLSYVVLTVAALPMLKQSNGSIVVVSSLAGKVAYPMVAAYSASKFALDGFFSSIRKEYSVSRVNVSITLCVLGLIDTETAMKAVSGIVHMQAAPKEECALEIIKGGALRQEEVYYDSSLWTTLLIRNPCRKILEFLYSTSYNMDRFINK

Structure (SMILES): Cc1cc(C(F)(F)F)n2nc(C(=O)N3CCCCC3)cc2n1 [Example 3, (5-methyl-7-trifluoromethyl-pyrazolo[1,5-a]pyrimidin-2-yl)-(piperidin-1-yl)methanone]
- IC50: 4700 nM

Structure (SMILES): Cc1cc(-c2ccccc2)n2nc(C(=O)N(C)C3CCCCC3)cc2n1 [Example 4]
- IC50: 340 nM
